Experimental data from patent US8865967B2 (priority 2010, dated 2014).

Key:
Format in all cases: cell-based
[1] = tested on: Colletotrichum graminicola (CGR; isolate Carroll-IA-99); settings: for IC50 (ppm) High Salt Cgr: high salt: 1/2x liquid media plus 1 mM calcium chloride, 50 mM potassium chloride, Table 1; for IC50 (ppm) Low Salt Cgr: low salt: 1/8x Czapek-Dox broth plus 0.25 mM calcium chloride, 12.5 mM potassium chloride; for Antifungal activity (IC50 in ppm) against C. graminicola under high salt conditions: Table 2
[2] = tested on: Fusarium graminearum (FGR; isolate 73B ISU); settings: for IC50 (ppm) High Salt Fgr: high salt: 1/2x liquid media plus 1 mM calcium chloride, 50 mM potassium chloride; for IC50 (ppm) Low Salt Fgr: low salt: 1/8x potato dextrose broth plus 0.25 mM calcium chloride, 12.5 mM potassium chloride
[3] = tested on: Fusarium verticillioides (FVE)
[4] = tested on: Diplodia maydis (DMA); settings: for IC50 (ppm) High Salt Dma: high salt: 1/2x liquid media plus 1 mM calcium chloride, 50 mM potassium chloride; for IC50 (ppm) Low Salt Dma: low salt: 1/8x potato dextrose broth plus 0.25 mM calcium chloride, 12.5 mM potassium chloride

| Substance | IC50 (ppm) High Salt Cgr [1] [ppm] | IC50 (ppm) Low Salt Cgr [1] [ppm] | IC50 (ppm) High Salt Fgr [2] | IC50 (ppm) High Salt Fve [3] [ppm] | IC50 (ppm) High Salt Dma [4] [ppm] | IC50 (ppm) Low Salt Fgr [2] [ppm] | IC50 (ppm) Low Salt Fve [3] [ppm] | IC50 (ppm) Low Salt Dma [4] [ppm] | Antifungal activity (IC50 in ppm) against C. graminicola under high salt conditions [1] [ppm] |
| --- | --- | --- | --- | --- | --- | --- | --- | --- | --- |
| Pp-PDF1-4CB-12G9: Pp-PDF1 variant from fourth shuffling round (RVCTKPSKFFRGLCVSDRQCTNACRKEGLPIGECQSKGFFNSVCVCRKPC; Synthetic sequence obtained from DNA shuffling of a plant sequence.) | 0.25 | 0.25 | 50 ppm | >200 | 25 | – | – | – | – |
| Pp-PDF1-3CA-1 E6: Pp-PDF1 variant from third shuffling round (RVCTKPSKFYRGLCVSDRDCTNACRKEGLPTGFCQSKGFFNSVCVCKKPC; Synthetic sequence obtained from DNA shuffling of a plant sequence.) | 0.6 | – | ^~100 ppm | – | – | – | – | – | – |
| Pp-PDF1-2CA-1A6: Pp-PDF1 variant from second shuffling round (RVCKKPSKFFKGLCLSDRDCTNACRKEGLATGECQSKGFFNSVCVCRKPC; Synthetic sequence obtained from DNA shuffling of a plant sequence.) | 1 | – | – | – | – | – | – | – | – |
| Pp-PDF1-4CB-6E6: Pp-PDF1 variant from fourth shuffling round (RVCTKPSKFYKGLCISDRDCTNACRKEGLPIGFCKSKGFFNSVCVCRKPC; Synthetic sequence obtained from DNA shuffling of a plant sequence.) | 0.25 | 0.25 | 150 ppm | >200 | 100 | – | – | – | – |
| PP-PDF1-2CF-2D8: Pp-PDF1 variant from second shuffling round (RVCTKPSKFYKGLCVSDRDCTNACRKEGLPTGFCQSKGFFNSVCVCKKPC; Synthetic sequence obtained from DNA shuffling of a plant sequence.) | 0.6 | 0.3 | 100 ppm | 200 | 50 | 15 | 30 | 15 | – |
| Pp-PDF1-3CA-1A7: Pp-PDF1 variant from third shuffling round (RVCTKPSKFFRGLCVSDRDCTNACRKEGLPIGFCQSKGFFNSVCVCKKPC; Synthetic sequence obtained from DNA shuffling of a plant sequence.) | 0.6 | 0.8 | ^~100 ppm | 200 | 25 | 15 | 30 | 10 | – |
| Pp-PDF1 (4B11): Pp-PDF1 variant identified by DNA shuffling (RVCTKPSKFFKGMCVSDNNCTHACRKEGLPTGFCQSKGFFNSVCVCKKPC; Synthetic sequence obtained from DNA shuffling of a plant sequence.) | 0.8 | – | >200 ppm | >200 | 12.5 | – | – | – | 1 |
| Pp-PDF1-1C-7C4: Pp-PDF1 variant from first shuffling round (RVCTKPSKFFKGMCVSDNDCTHACRKEGLATGFCQSKGFFNSVCVCTKPC; Synthetic sequence obtained from DNA shuffling of a plant sequence.) | 3 | 0.14 | 20 ppm | >200 | 25 | 4.7 | – | – | 5 |
| Pp-PDF1-3CA-1B2: Pp-PDF1 variant from third shuffling round (RVCTKPSKFYRGLCVSDRDCTHACRKEGLPIGECKSKGFFNSVCVCKKPC; Synthetic sequence obtained from DNA shuffling of a plant sequence.) | 0.8 | 2 | ^~100 ppm | 200 | 50 | 15 | 30 | 15 | – |
| PP-PDF1-1F-7H6: Pp-PDF1 variant from first shuffling round (RVCEKPSKFFKGMCVRDRDCTVACKKEGLATGFCQKKGFFNFVCVCKKPC; Synthetic sequence obtained from DNA shuffling of a plant sequence.) | 10 | – | 3 ppm | >200 | 200 | – | – | – | – |
| Pp-PDF1-3CA-2D3: Pp-PDF1 variant from third shuffling round (RVCTKPSKFFRGLCVSDNDCTNACRKEGLPTGFCQSKGFFNSVCVCKKPC; Synthetic sequence obtained from DNA shuffling of a plant sequence.) | 0.8 | 0.3 | ^~100 ppm | 200 | 25 | 15 | 30 | 6 | – |
| Pp-PDF1-2CA-1H4: Pp-PDF1 variant from second shuffling round (RVCRKPSKFFKGLCLSDRDCTNACRKEGLATGECQSKGFFNSVCVCEKPC; Synthetic sequence obtained from DNA shuffling of a plant sequence.) | 1 | – | – | – | – | – | – | – | – |
| Pp-PDF1 2CA 5H4: Pp-PDF1 variant from second shuffling round (RVCKKPSKFFKGLCLSDRDCTNACRKEGLATGECQSKGFFNSVCVCEKPC; Synthetic sequence obtained from DNA shuffling of a plant sequence.) | 1 | – | – | – | – | – | – | – | – |
| Pp-PDF1-1C-6D3: Pp-PDF1 variant from first shuffling round (RVCEKPSKFFKGLCVRDRDCAVACKKEGLASGFCQSKGFFNSVCVCKKPC; Synthetic sequence obtained from DNA shuffling of a plant sequence.) | 12 | 0.6 | – | – | – | 4.5 | – | – | – |
| Pp-PDF1-2CE-4A7: Pp-PDF1 variant from second shuffling round (RVCTKPSKFFKGLCVSDNNCTHACRTEGLPIGFCQSKGFFNSVCVCKKPC; Synthetic sequence obtained from DNA shuffling of a plant sequence.) | 0.8 | – | 5.6 ppm | 200 | 25 | – | – | – | – |
| Pp-PDF1-1F-1C5: Pp-PDF1 variant from first shuffling round (KVCTKPSKFFKGMCVRDRDCTNACRKEGLASGFCQKKGFFNFVCVCRKPC; Synthetic sequence obtained from DNA shuffling of a plant sequence.) | 10 | – | 1.5 ppm | >200 | 50 | – | – | – | – |
| PP-PDF1-1F-12H3: Pp-PDF1 variant from first shuffling round (RVCTKPSKFFKGLCVSDDDCAHACRKEGLATGKCQKKGFFNRVCVCKKPC; Synthetic sequence obtained from DNA shuffling of a plant sequence.) | 10 | – | 3 ppm | >200 | 200 | – | – | – | – |
| Pp-PDF1-4CB-6E9: Pp-PDF1 variant from fourth shuffling round (RVCTKPSKFFKGLCISDRQCTNACRKEGLPTGECQPKGFFNSVCVCRKPC; Synthetic sequence obtained from DNA shuffling of a plant sequence.) | 0.25 | 0.4 | 150 ppm | >200 | 100 | – | – | – | – |
| Pp-PDF1-3CA-1A2: Pp-PDF1 variant from third shuffling round (RVCTKPSKFYRGLCVSDRDCTHACRKEGLPTGFCQSKGFFNSVCVCKKPC; Synthetic sequence obtained from DNA shuffling of a plant sequence.) | 0.6 | 3 | ^~100 ppm | 200 | 50 | 15 | 30 | 15 | – |
| Pp-PDF1 (C2B5): Pp-PDF1 variant identified by DNA shuffling (RVCEKPSKFFKGMCVSDRNCTNACRKEGLPTGFCQSKGFFNSVCVCKKPC; Synthetic sequence obtained from DNA shuffling of a plant sequence.) | – | – | – | – | – | – | – | – | 0.8 |
| Pp-PDF1: Picramnia pentandra plant defensin, parent polypeptide used in the DNA shuffling (KVCTKPSKFFKGLCGADRDCTVACKKEGLATGFCQKKGFFNFVCVCRKPC; listed as Picramnia pentandra) [reference compound] | 15 | 3 | 5 ppm | 50 | 50 | 2 | 2 | 7.5 | 15 |
